# Where no end group is shown, it is not given here.
# Tested on: Lactobacillus sakei JCM1157
# Experiment: Growth inhibition zones on MRS agar plates containing protease Umamizyme G, overlaid with indicator strain
# Format: cell-based
# Settings: Example 2, protease 0 U/mL
# Procedure: The lactic acid bacterium Weissella sp. AJ110263 (FERM P-19577), isolated from fermented milk matsoon, and the lactic acid bacteria Pediococcus pentosaceus JCM5885, Pediococcus pentosaceus JCM5890, Lactobacillus plantarum JCM1149, and Lactobacillus salivarius JCM1231, obtained from type cultures, were precultured and cultured on MRS liquid medium (Table 1 above). The culture temperature was 30° C. for Weissella sp. and 37° C. for the other strains. The above lactic acid bacteria were inoculated onto and cultured for 24 hours on MRS agar medium plates to which “Umamizyme G”, a protease derived from Aspergillus, had been added in quantities of 0 U/mL (none added), 200 U/ML, and 400 U/mL. In culturing, 100 mL of MRS medium was added to a 500 mL Sakaguchi flask, […] was inoculated, and the medium was shaken 100 times/min.
# These plates were cultured for 24 hours at 30° C., resulting in the formation of growth inhibition zones in the indicator strains (Table 10 below).
# Lactococcus lactis NCD0497 (a bacterium producing nisin A) and Lactococcus lactis NCIMB702054 (a bacterium producing nisin Z) were separately cultured in MRS liquid medium at 30° C. In the same manner as in Example 1, antibiotic evaluation was conducted using Lactobacillus sakei strain JCM1157 as an indicator strain. […]
substance,measurement,value
"Nisin A: nisin A 1,000 IU/mL solution made by ICN Biomedical, spotted without bacterial strains (ITSISLCTPGCKTGALMGCNMKTATCHCSIHVSK; also: lantibiotic, lanthionine bridges and dehydro residues not placed; UniProt P13068 24-57, looked up)",diameters of the proliferation inhibition zones,30

# — patent US20070009503A1, “Antibiotic, Compositions Containing the Antibiotic, and Methods for Administering the Antibiotic and/or Said Compositions to Livestock” (priority 2004, published 2007)
